The values below are quoted from earlier work in patent US6472403B2, “αV integrin receptor antagonists” (Merck & Co., Inc., priority 2000, dated 2002).

Bounds are passed on as bounds.

In this data set the test system is postmenopausal osteoporotic women. The note with it: median of 22 months of treatment.

`CC[C@H](C)[C@H](NC(=O)[C@H](CCC(=O)O)NC(=O)[C@H](CO)NC(=O)[C@@H](NC(=O)[C@@H](N)CO)C(C)C)C(=O)N[C@@H](CCC(N)=O)C(=O)N[C@@H](CC(C)C)C(=O)N[C@@H](CCSC)C(=O)N[C@@H](Cc1cnc[nH]1)C(=O)N[C@@H](CC(N)=O)C(=O)N[C@@H](CC(C)C)C(=O)NCC(=O)N[C@@H](CCCCN)C(=O)N[C@@H](Cc1cnc[nH]1)C(=O)N[C@@H](CC(C)C)C(=O)N[C@@H](CC(N)=O)C(=O)N[C@@H](CO)C(=O)N[C@@H](CCSC)C(=O)N[C@@H](CCC(=O)O)C(=O)N[C@@H](CCCN=C(N)N)C(=O)N[C@H](C(=O)N[C@@H](CCC(=O)O)C(=O)N[C@@H](Cc1c[nH]c2ccccc12)C(=O)N[C@@H](CC(C)C)C(=O)N[C@@H](CCCN=C(N)N)C(=O)N[C@@H](CCCCN)C(=O)N[C@@H](CCCCN)C(=O)N[C@@H](CC(C)C)C(=O)N[C@@H](CCC(N)=O)C(=O)N[C@@H](CC(=O)O)C(=O)N[C@H](C(=O)N[C@@H](Cc1cnc[nH]1)C(=O)N[C@@H](CC(N)=O)C(=O)N[C@@H](Cc1ccccc1)C(=O)O)C(C)C)C(C)C` [hPTH(1-34)]: the “reduction in nonvertebral fractures” value is given as 54% and the “reduction in spine fractures” value is at least 65%.
